Read-outs that look alike come from different tables or passages of the source.
How the values were obtained:
MCF7 CARM1 KO cells = assay: Quantitative MS of ADMA-containing peptides in MCF7 CARM1 KO cells expressing CARM1 28-608 or CARM1 140-608, and in CARM1 KO; format: cell-based, human
MCF7 cells = assay: Quantitative nanoLC-MS/MS (TMT) of ADMA-containing peptides, CARM1 KO vs parental; format: cell-based, human; set-up: Fold change KO/WT: scale not given here
[1] = MCF7 CARM1 knockout vs wild type, 3 biological replicates each, values are on log2 scale
[2] = mean, CARM1 140-608 versus WT (log2 scale)
[3] = mean, CARM1 KO versus WT (log2 scale)
[4] = MCF7, CARM1 knockout vs wild type, n = 3 each
[5] = CARM1 140-608 vs WT, mean of 3 replicates, log2
[6] = KO vs WT, mean of 3 replicates, log2
[7] = MCF7, CARM1 KO vs WT, three biological replicates each
[8] = log2 scale ratio, mean of n = 3
[9] = ADMA-containing peptide, MCF7, CARM1 knockout (KO1-3) vs wild type (WT1-3), TMT 6-plex experiment #1
[10] = CARM1 140-608 versus WT, mean of three replicates (log2)
[11] = KO versus WT, mean of three replicates (log2)
[12] = MCF7, CARM1 KO (KO1-KO3) vs wild type (WT1-WT3)
[13] = CARM1 140-608 versus WT, difference of mean log2 values
[14] = CARM1 KO versus WT, difference of mean log2 values
[15] = CARM1 KO vs wild type MCF7 cells, 3 biological replicates each
[16] = ADMA-containing peptide, CARM1 knockout (KO) vs wild type (WT) MCF7 cells, 6-plex TMT experiment #1, three biological replicates each, sheet "MCF7"
[17] = CARM1 140-608 vs WT, mean of 3 replicates (log2 scale)
[18] = KO vs WT, mean of 3 replicates (log2 scale)
[19] = ratio on log2 scale, mean of 3 replicates

## ISSSSFSrVGSSNFR
MCF7 CARM1 KO cells
  CARM1 140-608/WT: -2.763
  KO/WT: -3.151
MCF7 cells; [1]
  Fold change KO/WT: -3.151

## SGFAATSQPGPrLPFIQHSQNPR
MCF7 CARM1 KO cells; [2]
  CARM1 140-608/WT: -0.196
MCF7 CARM1 KO cells; [3]
  KO/WT: -1.374
MCF7 cells; [4]
  Fold change KO/WT: -1.049

## KDLYANTVLSGGSTMYPGIADr
MCF7 CARM1 KO cells; [5]
  CARM1 140-608/WT: -0.3764
MCF7 CARM1 KO cells; [6]
  KO/WT: -0.3193
MCF7 cells; [7]
  Fold change KO/WT: -0.3193

## QGQPTPLVIQQPPKPGALIrPPQVTLTQTPMVALrQPHNR
MCF7 CARM1 KO cells; [8]
  CARM1 140-608/WT: -1.328
  KO/WT: -2.284
MCF7 cells; [9]
  Fold change KO/WT: -2.284

## SPFLGSArPrLrFSPYQIPVTIPPSTSLLTTGLASEGSK
MCF7 CARM1 KO cells; [8]
  CARM1 140-608/WT: -2.053
  KO/WT: -3.915
MCF7 cells; [9]
  Fold change KO/WT: -3.915

## ATSPrPrAFDGAGSSLGrAPSPrPGPGPLrQQGPPTPFDFLGR
MCF7 CARM1 KO cells; [10]
  CARM1 140-608/WT: -2.092
MCF7 CARM1 KO cells; [11]
  KO/WT: -2.635
MCF7 cells; [12]
  Fold change KO/WT: -2.635

## GVVDSDDLPLNVSr
MCF7 CARM1 KO cells; [2]
  CARM1 140-608/WT: -0.04605
MCF7 CARM1 KO cells; [3]
  KO/WT: -1.284
MCF7 cells; [1]
  Fold change KO/WT: -0.9856

## VIGTAVArYNFAAR
MCF7 CARM1 KO cells; [13]
  CARM1 140-608/WT: -1.8723
MCF7 CARM1 KO cells; [14]
  KO/WT: -2.89
MCF7 cells; [15]
  Fold change KO/WT: -2.89

## DCGTLPNrFVITPR
MCF7 CARM1 KO cells; [10]
  CARM1 140-608/WT: -0.5335
MCF7 CARM1 KO cells; [11]
  KO/WT: -0.73
MCF7 cells; [16]
  Fold change KO/WT: -0.2619

## LPGTPPLFSPPPrHHLDPHR
MCF7 CARM1 KO cells; [5]
  CARM1 140-608/WT: -1.232
MCF7 CARM1 KO cells; [6]
  KO/WT: -1.196
MCF7 cells; [7]
  Fold change KO/WT: -1.221

## GrGALLQDICK
MCF7 CARM1 KO cells; [13]
  CARM1 140-608/WT: 0.1138
MCF7 CARM1 KO cells; [14]
  KO/WT: -0.96
MCF7 cells; [15]
  Fold change KO/WT: 0.3016

## LNASIAGLFPPQINIPLPPrPNLNR
MCF7 CARM1 KO cells; [10]
  CARM1 140-608/WT: -1.542
MCF7 CARM1 KO cells; [11]
  KO/WT: -2.454
MCF7 cells; [16]
  Fold change KO/WT: -2.4198

## MPTMPMLDIrPGLIPQAPGPrFPLIQPGIPPQR
MCF7 CARM1 KO cells; [17]
  CARM1 140-608/WT: 0.8902
MCF7 CARM1 KO cells; [18]
  KO/WT: -2.649
MCF7 cells; [12]
  Fold change KO/WT: -2.649

## AYGQQYWGQPGNrGGYRNFYDR
MCF7 CARM1 KO cells; [2]
  CARM1 140-608/WT: -0.3814
MCF7 CARM1 KO cells; [3]
  KO/WT: 1.342
MCF7 cells; [1]
  Fold change KO/WT: 0.6249

## INPLPGGrNFSGTASTSLLGPPPGLLTPPVATELSQNAR
MCF7 CARM1 KO cells; [5]
  CARM1 140-608/WT: -1.005
MCF7 CARM1 KO cells; [6]
  KO/WT: -2.627
MCF7 cells; [7]
  Fold change KO/WT: -2.627

## QAAPQMLQQQPPrLISVQTMQR
MCF7 CARM1 KO cells; [13]
  CARM1 140-608/WT: -0.6208
MCF7 CARM1 KO cells; [14]
  KO/WT: -1.292
MCF7 cells; [15]
  Fold change KO/WT: -1.292

## TRNPFLTGLSAPSPTNPFGAGEPGrPTLNQMR
MCF7 CARM1 KO cells; [19]
  CARM1 140-608/WT: -1.179
  KO/WT: -1.766
MCF7 cells; [4]
  Fold change KO/WT: -1.766

## GLPTTTQrVGVPTAVQNLAPrAAVAAAAPrAVAPYK
MCF7 CARM1 KO cells; [10]
  CARM1 140-608/WT: -1.934
MCF7 CARM1 KO cells; [11]
  KO/WT: -2.638
MCF7 cells; [16]
  Fold change KO/WT: -2.96

## HQQLQQMrMQQPPAPVPTTTTTTQQHPrQAAPQMLQQQPPrLISVQTMQR
MCF7 CARM1 KO cells; [13]
  CARM1 140-608/WT: -0.9301
MCF7 CARM1 KO cells; [14]
  KO/WT: -2.355
MCF7 cells; [9]
  Fold change KO/WT: -1.659
MCF7 cells; [15]
  Fold change KO/WT: -1.574

## SVGQGYSVGQSMrLGLGGNAPVSIPQQSQSVK
MCF7 CARM1 KO cells; [5]
  CARM1 140-608/WT: -2.098
MCF7 CARM1 KO cells; [6]
  KO/WT: -2.576
MCF7 cells; [7]
  Fold change KO/WT: -2.576

## EGAEGVNGGEESVNLNDADEGFSSGASLSSQPIGTKPSSSSQrGSLR
MCF7 CARM1 KO cells; [19]
  CARM1 140-608/WT: -0.2709
  KO/WT: -0.04765
MCF7 cells; [4]
  Fold change KO/WT: -0.04765

## TNRPGISTTDrGFPrArYR
MCF7 CARM1 KO cells; [5]
  CARM1 140-608/WT: -0.4847
MCF7 CARM1 KO cells; [6]
  KO/WT: -0.1094
MCF7 cells; [7]
  Fold change KO/WT: -0.1094

## LIAAAQSGLPVrIESIK
MCF7 CARM1 KO cells; [17]
  CARM1 140-608/WT: -0.3613
MCF7 CARM1 KO cells; [18]
  KO/WT: -0.4316
MCF7 cells; [12]
  Fold change KO/WT: -0.4316

## YRPYDGAASAYAQNYrYPEPERPSSR
MCF7 CARM1 KO cells; [17]
  CARM1 140-608/WT: -1.157
MCF7 CARM1 KO cells; [18]
  KO/WT: -0.7141
MCF7 cells; [12]
  Fold change KO/WT: -0.7141

## DQPGTSAVPNLASVGTrLPPPLPQNLLYTVSER
MCF7 CARM1 KO cells; [10]
  CARM1 140-608/WT: -1.1192
MCF7 CARM1 KO cells; [11]
  KO/WT: -4.635
MCF7 cells; [12]
  Fold change KO/WT: -4.596

## GLGPGGTPFPGQGPPQrPrFYPVSEDPHR
MCF7 CARM1 KO cells; difference of log2 means, CARM1 140-608 vs WT
  CARM1 140-608/WT: -1.244
MCF7 CARM1 KO cells; difference of log2 means, KO vs WT
  KO/WT: -1.165
MCF7 cells; [1]
  Fold change KO/WT: -1.165

## LAMDFGGAGAAQQGLTDSCQSGGVPTAVQNLAPrAAVAAAAPrAVAPYK
MCF7 CARM1 KO cells; [10]
  CARM1 140-608/WT: -1.57
MCF7 CARM1 KO cells; [11]
  KO/WT: -4.352
MCF7 cells; [16]
  Fold change KO/WT: -4.352

## KPLPLGVrAPLAGPSAAAR
MCF7 CARM1 KO cells; [17]
  CARM1 140-608/WT: -2.373
MCF7 CARM1 KO cells; [18]
  KO/WT: -2.562
MCF7 cells; [12]
  Fold change KO/WT: -2.562

## SQAPArYSLQSANASSLSSGQLK
MCF7 CARM1 KO cells; [5]
  CARM1 140-608/WT: -3.491
MCF7 CARM1 KO cells; [6]
  KO/WT: -4.438
MCF7 cells; [7]
  Fold change KO/WT: -4.438

## GrFPGAVPGGDrFPGPAGPGGPPPPFPGNLIK
MCF7 CARM1 KO cells; [19]
  CARM1 140-608/WT: -1.24
  KO/WT: -2.782
MCF7 cells; [4]
  Fold change KO/WT: -2.782

## SGIILrSPrPDFrPrEPFLSrDPFHSLK
MCF7 CARM1 KO cells; [17]
  CARM1 140-608/WT: -0.96
MCF7 CARM1 KO cells; [18]
  KO/WT: -2.553
MCF7 cells; [12]
  Fold change KO/WT: -2.553

## VrINLQQQPPPLQIK
MCF7 CARM1 KO cells; [8]
  CARM1 140-608/WT: -1.463
  KO/WT: -4.329
MCF7 cells; [9]
  Fold change KO/WT: -3.801

## LGHDPYrLGHDAYrLGQDPYrLGHDPYR
MCF7 CARM1 KO cells
  CARM1 140-608/WT: -1.775
  KO/WT: -1.602
MCF7 cells; [9]
  Fold change KO/WT: -1.602

— article PMC5458078, “Global mapping of CARM1 substrates defines enzyme specificity and substrate recognition” (Nature Communications, 2017)
